{"source": "ChEMBL document CHEMBL5576037", "about": "“Discovery of the first ataxia telangiectasia and Rad3-related (ATR) degraders for cancer treatment” (Eur J Med Chem, 2024)", "key": {"[1]": {"test": "Toxicity in BALB/c nude mouse xenografted with human LoVo cells assessed as body weight loss at 12.5 mg/kg, ip administered once daily for 15 days in presence of cisplatin", "assay_type": "organism-based", "conditions": "in vivo, 360 h, time 15 day"}, "[2]": {"target": "T1, Protein cereblon/Serine/threonine-protein kinase ATR (Homo sapiens, UniProt Q13535+Q96SW2)", "T1 sequence (Q13535 whole entry, looked up)": "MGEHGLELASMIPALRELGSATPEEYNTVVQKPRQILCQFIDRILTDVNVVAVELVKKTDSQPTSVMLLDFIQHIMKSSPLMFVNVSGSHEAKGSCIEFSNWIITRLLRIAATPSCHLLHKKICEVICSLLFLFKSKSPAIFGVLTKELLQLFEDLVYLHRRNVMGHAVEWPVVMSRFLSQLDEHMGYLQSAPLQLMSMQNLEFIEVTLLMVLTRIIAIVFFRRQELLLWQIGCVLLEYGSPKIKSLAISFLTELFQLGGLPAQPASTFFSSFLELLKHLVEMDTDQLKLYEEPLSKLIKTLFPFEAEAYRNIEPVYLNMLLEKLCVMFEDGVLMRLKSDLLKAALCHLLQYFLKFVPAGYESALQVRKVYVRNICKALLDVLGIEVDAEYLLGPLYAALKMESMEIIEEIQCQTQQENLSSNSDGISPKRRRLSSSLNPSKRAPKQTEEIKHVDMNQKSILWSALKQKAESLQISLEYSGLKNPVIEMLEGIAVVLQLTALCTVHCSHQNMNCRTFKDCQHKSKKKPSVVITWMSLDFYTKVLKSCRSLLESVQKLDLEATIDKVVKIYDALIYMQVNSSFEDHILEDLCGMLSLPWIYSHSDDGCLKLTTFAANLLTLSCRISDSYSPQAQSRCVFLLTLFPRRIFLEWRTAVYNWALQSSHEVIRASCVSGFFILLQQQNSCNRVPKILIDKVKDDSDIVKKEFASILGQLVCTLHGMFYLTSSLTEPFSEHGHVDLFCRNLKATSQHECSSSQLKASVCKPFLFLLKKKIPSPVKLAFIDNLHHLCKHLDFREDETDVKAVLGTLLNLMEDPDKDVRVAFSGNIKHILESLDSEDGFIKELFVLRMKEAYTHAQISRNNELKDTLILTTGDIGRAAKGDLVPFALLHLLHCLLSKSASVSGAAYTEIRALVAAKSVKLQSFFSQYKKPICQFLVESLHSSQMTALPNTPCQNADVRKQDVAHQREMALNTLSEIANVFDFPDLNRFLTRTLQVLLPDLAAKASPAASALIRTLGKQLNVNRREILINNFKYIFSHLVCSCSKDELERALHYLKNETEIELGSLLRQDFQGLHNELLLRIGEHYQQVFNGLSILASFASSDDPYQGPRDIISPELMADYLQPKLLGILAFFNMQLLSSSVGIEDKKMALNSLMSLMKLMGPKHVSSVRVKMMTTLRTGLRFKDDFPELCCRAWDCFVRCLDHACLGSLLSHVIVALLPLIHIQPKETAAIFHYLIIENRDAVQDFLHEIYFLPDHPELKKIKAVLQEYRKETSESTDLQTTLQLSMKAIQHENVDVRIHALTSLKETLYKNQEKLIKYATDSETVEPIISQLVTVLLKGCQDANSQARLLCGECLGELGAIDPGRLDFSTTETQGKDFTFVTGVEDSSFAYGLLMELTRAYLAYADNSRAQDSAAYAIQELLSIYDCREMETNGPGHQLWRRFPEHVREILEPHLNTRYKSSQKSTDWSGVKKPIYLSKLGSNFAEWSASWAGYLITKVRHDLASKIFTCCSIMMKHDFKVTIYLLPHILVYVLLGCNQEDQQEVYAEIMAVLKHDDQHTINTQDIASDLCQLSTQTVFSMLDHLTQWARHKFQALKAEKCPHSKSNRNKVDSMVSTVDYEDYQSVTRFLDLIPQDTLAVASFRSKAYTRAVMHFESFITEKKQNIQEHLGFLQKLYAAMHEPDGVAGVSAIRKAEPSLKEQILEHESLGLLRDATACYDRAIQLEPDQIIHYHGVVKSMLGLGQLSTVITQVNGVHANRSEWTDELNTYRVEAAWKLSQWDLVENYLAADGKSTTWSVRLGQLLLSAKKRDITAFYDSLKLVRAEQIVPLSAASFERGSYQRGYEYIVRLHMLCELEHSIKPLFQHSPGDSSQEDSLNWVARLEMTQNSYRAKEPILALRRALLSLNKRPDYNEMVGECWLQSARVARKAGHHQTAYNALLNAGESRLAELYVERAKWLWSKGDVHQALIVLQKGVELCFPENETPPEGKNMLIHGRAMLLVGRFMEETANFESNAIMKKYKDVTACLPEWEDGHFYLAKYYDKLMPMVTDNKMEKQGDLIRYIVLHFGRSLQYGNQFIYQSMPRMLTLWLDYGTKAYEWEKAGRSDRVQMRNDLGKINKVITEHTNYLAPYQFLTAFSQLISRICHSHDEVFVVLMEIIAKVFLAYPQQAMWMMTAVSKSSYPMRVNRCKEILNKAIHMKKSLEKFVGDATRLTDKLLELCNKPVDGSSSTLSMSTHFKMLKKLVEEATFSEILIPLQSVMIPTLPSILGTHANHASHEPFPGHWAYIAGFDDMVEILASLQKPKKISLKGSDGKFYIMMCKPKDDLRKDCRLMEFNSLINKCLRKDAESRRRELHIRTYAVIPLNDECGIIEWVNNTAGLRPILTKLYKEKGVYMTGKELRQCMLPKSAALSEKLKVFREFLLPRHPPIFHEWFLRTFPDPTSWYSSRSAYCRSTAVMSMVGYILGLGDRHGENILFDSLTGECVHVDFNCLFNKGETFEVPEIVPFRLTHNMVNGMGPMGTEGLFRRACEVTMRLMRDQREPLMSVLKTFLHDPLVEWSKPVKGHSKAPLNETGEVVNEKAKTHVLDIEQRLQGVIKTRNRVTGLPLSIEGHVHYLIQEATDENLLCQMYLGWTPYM", "T1 sequence (Q96SW2 whole entry, looked up)": "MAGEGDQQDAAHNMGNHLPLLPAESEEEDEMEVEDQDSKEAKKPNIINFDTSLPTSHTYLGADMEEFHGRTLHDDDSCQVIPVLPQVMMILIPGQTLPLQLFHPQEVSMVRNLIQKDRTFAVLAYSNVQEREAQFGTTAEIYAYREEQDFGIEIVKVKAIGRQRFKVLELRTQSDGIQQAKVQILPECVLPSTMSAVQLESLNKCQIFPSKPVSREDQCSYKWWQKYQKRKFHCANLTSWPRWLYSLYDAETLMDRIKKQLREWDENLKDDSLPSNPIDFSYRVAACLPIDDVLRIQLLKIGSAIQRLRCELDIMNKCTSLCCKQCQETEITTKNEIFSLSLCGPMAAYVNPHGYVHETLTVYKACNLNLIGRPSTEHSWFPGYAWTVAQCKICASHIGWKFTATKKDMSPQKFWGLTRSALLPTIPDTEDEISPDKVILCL", "test": "PROTAC activity at CRBN/ATR in human LoVo cells assessed as induction of ATR degradation at 1 uM incubated for 24 hrs by global proteomic profiling analysis", "assay_type": "cell-based"}, "[3]": {"target": "T1, Protein cereblon/Serine/threonine-protein kinase ATR", "test": "PROTAC activity at CRBN/ATR in human LoVo cells assessed as induction of ATR degradation at 2.5 uM preincubated with pomalidomide for 4 hrs followed by compound addition and measured after 48 hrs by Western blot analysis", "assay_type": "cell-based"}, "[4]": {"test": "Toxicity in BALB/c nude mouse xenografted with human LoVo cells assessed as effect on heart at 12.5 to 25 mg/kg, ip administered twice daily for 15 days by H and E staining based analysis", "assay_type": "organism-based", "conditions": "in vivo, 360 h, dose 12.5-25 mg/kg, time 15 day"}, "LoVo [5]": {"system": "LoVo", "test": "Antitumor activity against human LoVo cells xenografted in BALB/c nude mouse assessed as tumor growth inhibition at 25 mg/kg, ip administered […] for 15 days relative to control", "assay_type": "functional", "conditions": "360 h, time 15 day, read-out: TGI"}, "LoVo [6]": {"system": "LoVo", "test": "Induction of apoptosis in human LoVo cells assessed as apoptotic rate at 1 uM incubated for 48 hrs by Annexin V-FITC/PI staining based flow cytometric analysis (reference value: 5.32 %)", "assay_type": "functional"}, "[7]": {"test": "Toxicity in BALB/c nude mouse xenografted with human LoVo cells assessed as effect on spleen at 12.5 to 25 mg/kg, ip administered twice daily for 15 days by H and E staining based analysis", "assay_type": "organism-based", "conditions": "in vivo, 360 h, dose 12.5-25 mg/kg, time 15 day"}, "LoVo [8]": {"system": "LoVo", "test": "Antitumor activity against human LoVo cells xenografted in BALB/c nude mouse assessed as induction of DNA damage by measuring increase in gammaH2AX protein level", "assay_type": "functional, cell-based"}, "[9]": {"target": "T1, Protein cereblon/Serine/threonine-protein kinase ATR", "test": "PROTAC activity at CRBN/ATR in human LoVo cells assessed as induction of ATR degradation by measuring maximal efficacy after 72 hrs by Western blot analysis relative to control", "assay_type": "cell-based"}, "[10]": {"target": "T1, Protein cereblon/Serine/threonine-protein kinase ATR", "test": "PROTAC activity at CRBN/ATR in human LoVo cells assessed as induction of ATR degradation at 2.5 uM incubated for 4 hrs by Western blot analysis", "assay_type": "cell-based"}, "HCT-116": {"system": "HCT-116", "test": "Antiproliferative activity against human HCT-116 cells expressing wildtype ATM incubated for 72 hrs by CCK8 assay", "assay_type": "functional, cell-based", "conditions": "HCT-116, 72 h"}, "LoVo [11]": {"system": "LoVo", "test": "Induction of apoptosis in human LoVo cells assessed as apoptotic rate at 0.5 uM incubated for 48 hrs by Annexin V-FITC/PI staining based flow cytometric analysis (reference value: 5.32 %)", "assay_type": "functional"}, "[12]": {"test": "Half-life in BALB/c nude mouse xenografted with human LoVo cells at 25 mg/kg, ip administered as single dose and measured after 12 hrs by LC-MS/MS analysis", "assay_type": "ADME, organism-based", "conditions": "in vivo"}, "[13]": {"target": "T2, ATPase family gene 2 protein homolog B (Homo sapiens) (UniProt Q9BVQ7)", "T2 sequence (whole entry)": "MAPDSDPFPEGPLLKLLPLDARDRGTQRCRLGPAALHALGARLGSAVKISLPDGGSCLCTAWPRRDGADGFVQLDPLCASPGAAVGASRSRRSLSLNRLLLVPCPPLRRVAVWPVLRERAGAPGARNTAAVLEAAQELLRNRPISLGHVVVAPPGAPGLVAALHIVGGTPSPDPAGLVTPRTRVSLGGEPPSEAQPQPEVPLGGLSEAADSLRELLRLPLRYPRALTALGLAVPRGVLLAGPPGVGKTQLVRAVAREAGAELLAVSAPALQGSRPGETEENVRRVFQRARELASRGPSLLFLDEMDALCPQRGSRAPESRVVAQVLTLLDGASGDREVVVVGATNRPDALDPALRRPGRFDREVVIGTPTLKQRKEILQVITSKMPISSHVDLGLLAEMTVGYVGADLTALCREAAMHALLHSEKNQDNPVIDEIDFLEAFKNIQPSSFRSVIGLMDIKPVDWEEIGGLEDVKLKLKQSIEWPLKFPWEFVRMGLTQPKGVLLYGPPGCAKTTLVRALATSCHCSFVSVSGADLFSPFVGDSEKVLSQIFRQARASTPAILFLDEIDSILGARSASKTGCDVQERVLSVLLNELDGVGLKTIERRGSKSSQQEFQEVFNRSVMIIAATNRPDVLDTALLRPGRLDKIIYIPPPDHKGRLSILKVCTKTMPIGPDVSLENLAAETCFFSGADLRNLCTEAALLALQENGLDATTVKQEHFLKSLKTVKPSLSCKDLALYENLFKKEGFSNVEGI", "test": "Induction of SPATA5L1 degradation in human LoVo cells at 1 uM incubated for 24 hrs by global proteomic profiling analysis", "assay_type": "cell-based"}, "LoVo [14]": {"system": "LoVo", "test": "Synergistic antitumor activity against human LoVo cells xenografted in BALB/c nude mouse assessed as tumor growth inhibition at 12.5 mg/kg, ip administered once daily for 15 days in presence of cisplatin relative to control", "assay_type": "functional", "conditions": "360 h, time 15 day, read-out: TGI"}, "[15]": {"target": "DNA-dependent protein kinase catalytic subunit (Homo sapiens) (UniProt P78527)", "test": "Induction of DNA-PK degradation in human LoVo cells at 0.16 to 10 uM incubated for 72 hrs by Western blot analysis", "assay_type": "cell-based", "conditions": "dose 0.16-10 µM"}, "LoVo [16]": {"system": "LoVo", "test": "Antiproliferative activity against ATM deficient human LoVo cells incubated for 72 hrs by CCK8 assay", "assay_type": "functional, cell-based"}, "[17]": {"test": "Toxicity in BALB/c nude mouse xenografted with human LoVo cells assessed as effect on lung at 12.5 to 25 mg/kg, ip administered twice daily for 15 days by H and E staining based analysis", "assay_type": "organism-based", "conditions": "in vivo, 360 h, dose 12.5-25 mg/kg, time 15 day"}, "LoVo [18]": {"system": "LoVo", "test": "Downregulation of total ATR protein level in human LoVo cells incubated for 72 hrs by Western blot analysis", "assay_type": "functional, cell-based", "conditions": "dose 0.16-10 µM"}, "Mus musculus": {"system": "Mus musculus", "test": "Effect on CHK1 protein expression in BALB/c nude mouse xenografted with human LoVo cells at 12.5 to 25 mg/kg, ip administered once daily for 15 days by Western blot analysis", "assay_type": "functional, organism-based", "conditions": "dose 12.5-25 mg/kg, time 15.0 day"}, "[19]": {"test": "AUC (0 to infinity) in BALB/c nude mouse xenografted with human LoVo cells at 25 mg/kg, ip administered as single dose and measured after 12 hrs by LC-MS/MS analysis", "assay_type": "ADME, organism-based", "conditions": "in vivo"}, "[20]": {"target": "T1, Protein cereblon/Serine/threonine-protein kinase ATR", "test": "PROTAC activity at CRBN/ATR in human LoVo cells assessed as induction of ATR degradation at 2.5 uM preincubated with AZD6738 for 4 hrs followed by compound addition and measured after 48 hrs by Western blot analysis", "assay_type": "cell-based"}, "LoVo [21]": {"system": "LoVo", "test": "Cell cycle arrest in human LoVo cells assessed as accumulation of cells at G2/M phase at 0.5 uM incubated for 72 hrs by PI staining based flow cytometric analysis (reference value: 22.2 %)", "assay_type": "functional"}, "LoVo [22]": {"system": "LoVo", "test": "Cell cycle arrest in human LoVo cells assessed as accumulation of cells at G2/M phase at 1 uM incubated for 72 hrs by PI staining based flow cytometric analysis (reference value: 22.2 %)", "assay_type": "functional"}, "[23]": {"test": "Free drug concentration in tumor of BALB/c nude mouse xenografted with human LoVo cells at 25 mg/kg, ip administered as single dose and measured after 12 hrs by LC-MS/MS analysis", "assay_type": "ADME, organism-based", "conditions": "in vivo"}}, "note": "Activity calls are given as the source filed them. The rule behind the calls is not given here.", "data": [{"smiles": "C[C@@H]1COCCN1c1cc(C2([S@@](C)(=O)=NC(=O)CCc3cn(CCCCCCCC(=O)Nc4cccc5c4C(=O)N(C4CCC(=O)NC4=O)C5=O)nn3)CC2)nc(-c2ccnc3[nH]ccc23)n1", "note": "(stereo not given in full)", "values": [{"measurement": "Activity", "setting": "[1]", "value": "Non-Toxic"}, {"measurement": "Activity", "setting": "[2]", "value": "Active"}, {"measurement": "Activity", "setting": "[3]", "value": "inactive"}, {"measurement": "Activity", "setting": "[4]", "value": "Non-Toxic"}, {"measurement": "inhibition in vivo at 25 mg/kg", "setting": "LoVo [5]", "value": 51.8, "unit": "%"}, {"measurement": "Activity", "setting": "LoVo [6]", "value": 45.62, "unit": "%"}, {"measurement": "Activity", "setting": "[7]", "value": "Non-Toxic"}, {"measurement": "Activity", "setting": "LoVo [8]", "value": "Active"}, {"measurement": "Emax", "setting": "[9]", "value": 84.3, "unit": "%"}, {"measurement": "Activity", "setting": "[10]", "value": "Active"}, {"measurement": "IC50", "setting": "HCT-116", "value": 5100, "unit": "nM"}, {"measurement": "Activity", "setting": "LoVo [11]", "value": 23.91, "unit": "%"}, {"measurement": "half-life", "setting": "[12]", "value": 4.75, "unit": "h"}, {"measurement": "Activity", "setting": "[13]", "value": "Active"}, {"measurement": "inhibition in vivo at 12.5 mg/kg", "setting": "LoVo [14]", "value": 60.6, "unit": "%"}, {"measurement": "Activity", "setting": "[15]", "value": "inactive"}, {"measurement": "IC50", "setting": "LoVo [16]", "value": 470, "unit": "nM"}, {"measurement": "Activity", "setting": "[17]", "value": "Non-Toxic"}, {"measurement": "Activity", "setting": "LoVo [18]", "value": "Dose-Dependent Effect"}, {"measurement": "Activity", "setting": "Mus musculus", "value": "inactive"}, {"measurement": "AUC(0-inf)", "setting": "[19]", "value": 4070, "unit": "ng·h/mL"}, {"measurement": "Activity", "setting": "[20]", "value": "inactive"}, {"measurement": "Activity", "setting": "LoVo [21]", "value": 19.7, "unit": "%"}, {"measurement": "Activity", "setting": "LoVo [22]", "value": 13.4, "unit": "%"}, {"measurement": "Drug uptake(free)", "setting": "[23]", "value": "~ 6 uM"}]}]}
